These results are taken from ChEMBL document CHEMBL1275492, “In vitro activity of ceftobiprole against pathogens from two phase 3 clinical trials of complicated skin and skin structure infections” (2008).

Values after ≈ are worked out from the molar mass of the structure shown. Some results are limits rather than exact numbers.

Common to all, as to format: functional
The test system of one assay is Salmonella. Description: Antibacterial activity against Salmonella spp. obtained from complicated skin and skin structure infections by agar dilution method. (In general: Agar dilution tests growth on a series of plates holding different concentrations.)
For another assay, the system named is Acinetobacter baumannii. Description: Antibacterial activity against Acinetobacter baumannii obtained from complicated skin and skin structure infections by agar dilution method.
The next assay deals with Pseudomonas aeruginosa. Description: Antibacterial activity against Pseudomonas aeruginosa obtained from complicated skin and skin structure infections by agar dilution method.
The subject of a further assay is Proteus penneri. Description: Antibacterial activity against Proteus penneri obtained from complicated skin and skin structure infections by agar dilution method.
The next assay has as its system Proteus mirabilis. Description: Antibacterial activity against Proteus mirabilis obtained from complicated skin and skin structure infections by agar dilution method.
The subject of another assay is Citrobacter freundii. Description: Antibacterial activity against Citrobacter freundii obtained from complicated skin and skin structure infections by agar dilution method.
The test system of the next assay is Escherichia coli. Description: Antibacterial activity against Escherichia coli obtained from complicated skin and skin structure infections by agar dilution method.
The test system of another assay is Citrobacter braakii. As to the kind of experiment: Antibacterial activity against Citrobacter braakii obtained from complicated skin and skin structure infections by agar dilution method.
The next assay has as its system Enterobacter amnigenus. Description: Antibacterial activity against Enterobacter amnigenus obtained from complicated skin and skin structure infections by agar dilution method. The conditions noted are these: Lelliottia amnigena.
For a further assay, the system named is Providencia stuartii. As to the kind of experiment: Antibacterial activity against Providencia stuartii obtained from complicated skin and skin structure infections by agar dilution method.
The next assay concerns Pseudomonas fluorescens. As to the kind of experiment: Antibacterial activity against Pseudomonas fluorescens obtained from complicated skin and skin structure infections by agar dilution method.
The test system of another assay is Klebsiella aerogenes. As to the kind of experiment: Antibacterial activity against Enterobacter aerogenes obtained from complicated skin and skin structure infections by agar dilution method.
In a further assay the test system is Morganella morganii. As to the kind of experiment: Antibacterial activity against Morganella morganii obtained from complicated skin and skin structure infections by agar dilution method.
The subject of assay [1] is Stenotrophomonas maltophilia. As to the kind of experiment: Antibacterial activity against Stenotrophomonas maltophilia obtained from complicated skin and skin structure infections by agar dilution method.
The subject of the next assay is Serratia marcescens. Description: Antibacterial activity against Serratia marcescens obtained from complicated skin and skin structure infections by agar dilution method.
A further assay deals with Klebsiella oxytoca. As to the kind of experiment: Antibacterial activity against Klebsiella oxytoca obtained from complicated skin and skin structure infections by agar dilution method.
A further assay concerns Proteus vulgaris. As to the kind of experiment: Antibacterial activity against Proteus vulgaris obtained from complicated skin and skin structure infections by agar dilution method.
A further assay concerns Klebsiella pneumoniae. As to the kind of experiment: Antibacterial activity against Klebsiella pneumoniae obtained from complicated skin and skin structure infections by agar dilution method.

For orientation: MIC50 means an inhibitory concentration at the 50% level, which refers to growth in some studies and to a panel of isolates in others. A word on the MIC90: it is the lowest concentration that inhibits either 90% of growth or 90% of the strains tested, depending on the study. A higher MIC90 goes with lower susceptibility. On to `O=C(O)c1cn(C2CC2)c2cc(N3CCNCC3)c(F)cc2c1=O` [CIPROFLOXACIN], for which the MIC50 against Salmonella is 0.015 µg/mL (≈ 0.0453 µM); against Acinetobacter baumannii, above 2 µg/mL; against Pseudomonas aeruginosa it was 1 µg/mL (≈ 3.02 µM); in the assay with Proteus penneri, 0.015 µg/mL (≈ 0.0453 µM); against Proteus mirabilis, 0.03 µg/mL (≈ 0.0905 µM); in the assay on Citrobacter freundii, 0.015 µg/mL (≈ 0.0453 µM). Besides, the MIC50 with Escherichia coli was 0.015 µg/mL (≈ 0.0453 µM); in the assay on Citrobacter braakii, 0.015 µg/mL (≈ 0.0453 µM); against Enterobacter amnigenus, 0.015 µg/mL (≈ 0.0453 µM); with Providencia stuartii, 0.015 µg/mL (≈ 0.0453 µM); against Pseudomonas fluorescens it was above 2 µg/mL; against Klebsiella aerogenes, 0.015 µg/mL (≈ 0.0453 µM). In addition, the MIC50 in the assay with Morganella morganii was 0.12 µg/mL (≈ 0.362 µM); in [1], above 2 µg/mL; against Serratia marcescens, 0.015 µg/mL (≈ 0.0453 µM); with Klebsiella oxytoca it was 0.015 µg/mL (≈ 0.0453 µM); in the assay with Proteus vulgaris, 0.015 µg/mL (≈ 0.0453 µM). The MIC90 was above 2 µg/mL against Salmonella; above 8 µg/mL against Acinetobacter baumannii; above 8 µg/mL against Pseudomonas aeruginosa; above 2 µg/mL against Proteus penneri; above 2 µg/mL with Proteus mirabilis; above 2 µg/mL in the assay with Citrobacter freundii. Also, the MIC90 was 1 µg/mL (≈ 3.02 µM) in the assay with Escherichia coli; above 2 µg/mL in the assay on Citrobacter braakii; above 2 µg/mL against Enterobacter amnigenus; above 2 µg/mL against Providencia stuartii; above 8 µg/mL against Pseudomonas fluorescens; above 2 µg/mL against Klebsiella aerogenes. The MIC90 in the assay with Morganella morganii is above 8 µg/mL; in [1], above 8 µg/mL; against Serratia marcescens, above 2 µg/mL; in the assay with Klebsiella oxytoca it was above 2 µg/mL; against Proteus vulgaris it was above 2 µg/mL.
As for `CO/N=C(\C(=O)N[C@@H]1C(=O)N2C(C(=O)[O-])=C(C[N+]3(C)CCCC3)CS[C@H]12)c1csc(N)n1`, the MIC50 in the assay on Salmonella was 0.06 µg/mL (≈ 0.125 µM); in the assay with Acinetobacter baumannii it was above 16 µg/mL; in the assay with Pseudomonas aeruginosa, 4 µg/mL (≈ 8.32 µM); against Proteus penneri, 0.06 µg/mL (≈ 0.125 µM); with Klebsiella pneumoniae, at most 0.12 µg/mL; in the assay on Proteus mirabilis, 0.06 µg/mL (≈ 0.125 µM). The MIC50 against Citrobacter freundii was 0.06 µg/mL (≈ 0.125 µM); in the assay with Escherichia coli it was 0.03 µg/mL (≈ 0.0624 µM); against Citrobacter braakii it was 0.06 µg/mL (≈ 0.125 µM); with Enterobacter amnigenus it was 0.06 µg/mL (≈ 0.125 µM); against Providencia stuartii it was 0.06 µg/mL (≈ 0.125 µM); in the assay on Pseudomonas fluorescens, above 16 µg/mL. Also, the MIC50 against Klebsiella aerogenes was 0.06 µg/mL (≈ 0.125 µM); against Morganella morganii it was 0.03 µg/mL (≈ 0.0624 µM); in assay [1] it was above 16 µg/mL; in the assay on Serratia marcescens it was 0.06 µg/mL (≈ 0.125 µM); against Klebsiella oxytoca, 0.06 µg/mL (≈ 0.125 µM); in the assay on Proteus vulgaris, 0.06 µg/mL (≈ 0.125 µM). The MIC90 with Salmonella stood at 4 µg/mL (≈ 8.32 µM); in the assay with Acinetobacter baumannii, 32 µg/mL (≈ 66.6 µM); in the assay with Pseudomonas aeruginosa, 64 µg/mL (≈ 133 µM); in the assay on Proteus penneri it was 4 µg/mL (≈ 8.32 µM); in the assay with Klebsiella pneumoniae, 1 µg/mL (≈ 2.08 µM); in the assay on Proteus mirabilis, 1 µg/mL (≈ 2.08 µM). Also, the MIC90 in the assay with Citrobacter freundii came to 4 µg/mL (≈ 8.32 µM); against Escherichia coli, 0.12 µg/mL (≈ 0.25 µM); with Citrobacter braakii, 4 µg/mL (≈ 8.32 µM); in the assay on Enterobacter amnigenus, 4 µg/mL (≈ 8.32 µM); against Providencia stuartii, 4 µg/mL (≈ 8.32 µM); with Pseudomonas fluorescens, 32 µg/mL (≈ 66.6 µM). The MIC90 is 4 µg/mL (≈ 8.32 µM) with Klebsiella aerogenes; above 64 µg/mL with Morganella morganii; 32 µg/mL (≈ 66.6 µM) in assay [1]; 4 µg/mL (≈ 8.32 µM) in the assay with Serratia marcescens; 4 µg/mL (≈ 8.32 µM) with Klebsiella oxytoca; 4 µg/mL (≈ 8.32 µM) in the assay on Proteus vulgaris.
Turning to GENTAMICIN, in the assay with Pseudomonas aeruginosa, the MIC50 came out at 4 µg/mL and the MIC90 is above 16 µg/mL.
